From patent US20220313626A1, “SMALL MOLECULE INHIBITORS FOR TREATING CANCER IN A SUBJECT HAVING TUMORS WITH HIGH INTERSTITIAL PRESSURE” (GUANGZHOU MAXINOVEL PHARMACEUTICALS CO., LTD., priority 2019, published 2022) come the findings set out here.

For the assay, the system named is MC-38-hPD-L1 tumor cells. As to the kind of experiment: Anti-tumor efficacy in MC-38-hPD-L1 models. In kind it is in vivo. The following applies: MC-38-hPD-L1, C57BL/6-hPD-1 mice; 20 mg/kg, IP, BIW; 19 days. As for the experimental part: Materials required for the experiment: Antibody: PD-L1 antibody Durvalumab, Product specifications: 120 mg/2.4 mL(50 mg/mL), Lot No.: 041E17C, Manufacture: AstraZeneca, purchased from Hongkong Mingchuang Medical Limited, storage at 2-8° C. Experimental animal: 120 C57BL/6-hPD-1 mice, female, 6˜8 weeks old, 18˜21 g, purchased from Jiangsu Gem Pharmatech Co. Ltd. Formulation material: castor oil (Cremophor RH40), CAS No.: 61788-85-0, Lot No.: 29761847G0, purchased from Shanghai Xietai Chemical Co. Ltd.; β-cyclodextrin (SBE-β-CD), CAS No.: 128446-35-5, Lot No.: R1804474, purchased from Shanghai Shaoyuan Chemical Co. Ltd.; DMEM culture medium, CAS No.: 11995-065, Lot No.: 2025378, purchased from Gibco Co. Ltd.; PBS, Art. No.: SH30256.01, Lot No.: AB10141338, purchased from HyClone Co. Ltd.; Fetal bovine serum: CAS No.: 10099-141, Lot No.: 1966174C, purchased from Gibco Co. Ltd.; hygromycinB: CAS No.: 10687010, Lot No.: HY069-L12 purchased from Invitrogen.
Cell culture: The MC-38 tumor cells (NCI) were maintained in vitro as a monolayer culture in DMEM medium supplemented with 10% heat inactivated fetal bovine serum, 100 μg/mL hygromycinB at 37° C. in an atmosphere of 5% CO2 in air. The tumor cells were routinely subcultured three times weekly by trypsin-EDTA treatment. The cells growing to a confluency around 70%-80% were harvested and counted for tumor inoculation.
Tumor cell inoculation and group administration: The 100 uL cell suspension containing 1×10^6 MC-38-hPD-L1 tumor cells (cells suspended in base DMEM medium) was inoculated into right dorsal subcutaneous area in mice. 6 days after inoculation, 60 tumor-bearing mice with transplanted tumors ranging from 31.49 mm^3 to 110.26 mm^3 were selected, stratified randomization was used to group and start the administration on the day of grouping.
Preparation of test substances: Preparation of formulation: 800 mL of sterile water was added into the volumetric flask with magnetic stirring to have a vortex. 100 g of castor oil (Cremophor RH40) was added with a spoon slowly into the vortex and the solution was kept stirring. 200 g of β-cyclodextrin (SBE-β-CD) was added while the solution was kept stirring until the solution was clear, and the total volume was set to 1000 mL, which contained 10% (w/v) Cremophor RH40+20% (w/v) an aqueous solution of SBE-β-CD.
Preparation of Compound Suspension: 150.92 mg compound was weighed and 12.5 mL 10% (w/v) Cremophor RH40+20% (w/v) SBE-β-CD aqueous solution were added. The suspension solution with a concentration of 12.0 mg/mL was obtained by vortex for 2 minutes and ultrasound for 30 minutes. 5.0 mL of the compound suspension solution with concentration of 12.0 mg/mL was pipetted and 5.0 mL aqueous formulation solution was added. The suspension solution with a concentration of 6.0 mg/mL was obtained by vortex for 1 minute and sonicated by ultrasound for 5 minutes. 2.0 mL of the compound suspension solution with concentration of 6.0 mg/mL was pipetted and […] was added. The suspension solution with a concentration of 3.0 mg/mL was obtained by vortex for 1 minute and sonicated by ultrasound for 5 minutes. Compound suspension solution was prepared once a day.
Preparation of hPD-L1 antibody: 0.12 mL PD-L1 antibody Durvalumab (50 mg/mL) original solution was pipetted and divided into […] in 5 mL sterile centrifugal tube, which were packed with each containing 6.0 mg. They were stored in refrigerator at 4° C. Before administration, a raw solution containing 0.12 mL and 50 mg/mL was taken, and 2.88 mL 0.9% sodium chloride solution was added to make the solution thoroughly mixed. 3 mL Duvalumab solution with the concentration 2 mg/mL was obtained.
Procedure: The mice in the vehicle group were weighed and recorded in the electronic balance according to their numbers. […]

The TGI is the reduction of tumour growth relative to the control group. For the substance Durvalumab [reference compound], the TGI is reported as 48.17% and the “Tumor Volume” value was 341.19 ± 56.59 mm^3.
